Legend:
[1] = system: MRP4 (ABCC4); details: cited from earlier work
[2] = CXlogD at pH 7.4 ref https://ebi.ac.uk (02.04.2024); cited from earlier work
[3] = Transport study across oral mucosa Transwell model, apical to basolateral, 240 min; details: human
Protocol: (§1) As soon as cells reached confluency, cultivation was switched from submerged to airlift and 1% Human Keratinocytes Growth Supplements (HKGS, Gibco, Thermofisher, Vienna, Austria, S0015) was added to the cultivation media on the basolateral compartment. Media were changed every 2–3 days until the day of experiment on day 29. Cells from passage 14–36 were used for experiments. Transepithelial electric resistance (TEER) was measured on day of experiment, as described in detail previously.
(§2) Solutions were diluted to 10 µM (carboxyfluorescein) or 100 µM in DMEM on day of experiments.
(§3) First, TEER was measured in cultivation media on the day of experiment. Afterwards, cells and blanks were washed twice with DMEM on the apical (300 µL) and basolateral (900 µL) compartments and selected cells and blanks were treated with DMEM with or without 100 µM probenecid or verapamil on the apical and basolateral side at 37 °C for 30 min. […] To cells which were pre-incubated with probenecid or verapamil, 100 µM probenecid or verapamil was applied apically as well. DMSO content was adapted for cells with no inhibitors, and DMSO and dd-H2O content was adjusted in the basolateral compartment as well in order to apply the same vehicle concentrations on the apical and basolateral compartment. […] Subsequently, duplicates of apical sample were collected, and samples were frozen at −80 °C until further analysis with High-Performance Liquid Chromatography (HPLC).
(§4) Peaks were quantified using the software Chromeleon Version 7.2.6, and corresponding mili absorbance unit × time [mAU × min] values were used for data analysis.
(§5) Mean values of relative fluorescence unit (RFU) or detected area [mAU × min] were used for calculation. For the first timepoint, the clearance [µL] for the detected area was calculated as shown in the formula below (1a), with Abasot1 as the measured area [mAU × min] at the first time point of the basolateral sample, Vbaso as the basolateral volume [µL] and Astock as the area measured for the applied stock solution. […] Clearance [µL] for carboxyfluorescein was calculated with the same formulas using RFU. (1a) Clearance=Abasot1×Vbaso/AStock (1b) Clearancetn=Abasotn×Vbaso/AStock−∑(Abasotn−1 ×3− Abasot1 ×3)
(§6) Cleared volume [µL] was calculated by plotting the sum of clearance at all time points over time [min]. The resulting slope PS [µL/min] was calculated inversely. For calculation of the PScell, the inverse PS blanks were subtracted, as shown below in Formula (2). (2) 1/PScell=1/PSall−1/PSblank
(§7) The final permeability coefficient is calculated by dividing the inverse PScell by the area of the ThinCerts (0.336 cm^2) and multiplying by a conversion factor to give the permeability coefficient as µm/min.

[4] = system: oral mucosa epithelium in vitro model based on human cell line TR146; experiment: as above; details: for Permeability coefficient without inflammation and inhibitor: Table S3; for cumulated concentration of NSAID in the basolateral compartment: 4 h; for permeability coefficient: mean ± SEM
Protocol: as §1, §2, §3, §4, §5, §6, §7

[5] = Transport study across blank inserts without cells; details: mean ± SD
Protocol: as §3, §5, §6

[6] = system: COX-2; design: method as in PMID 10866999; details: human cell lines ref 59; cited from earlier work
[7] = Celexocib study, w/o Inhibitor, mean ± SD
[8] = without inhibitor, 100 µM apical (CF 10 µM)
[9] = Celexocib study, Probenecid, mean ± SD
[10] = Celexocib study, Verapamil, mean ± SD
[11] = Diclofenac study, Probenecid, mean ± SD
[12] = Diclofenac study, Verapamil, mean ± SD
[13] = Diclofenac study, w/o Inhibitor, mean ± SD
[14] = Ibuprofen study, Probenecid, mean ± SD
[15] = Ibuprofen study, Verapamil, mean ± SD
[16] = Ibuprofen study, w/o Inhibitor, mean ± SD
[17] = Piroxicam study, Probenecid, mean ± SD
[18] = Piroxicam study, Verapamil, mean ± SD
[19] = Piroxicam study, w/o Inhibitor, mean ± SD

For `Cc1ccc(-c2cc(C(F)(F)F)nn2-c2ccc(S(N)(=O)=O)cc2)cc1` [celecoxib], the “inhibitory effect on MRP4 function” value [1] is given as “weaker in comparison to ibuprofen”, the XlogD [2] is given as 4.01 and the Papp A→B at 240 min ([3]; PC (permeability of cell), Celexocib study, w/o Inhibitor, mean ± SD) is given as 0.733 ×10⁻⁶ cm/s. For the same compound, the Papp A→B at 240 min ([3]; with probenecid 100 µM, PC (permeability of cell), Celexocib study, Probenecid, mean ± SD) was 10.1 ×10⁻⁶ cm/s, the Papp A→B at 240 min ([3]; with probenecid 100 µM, PE (permeability of cell + blank), Celexocib study, Probenecid, mean ± SD) was 2.72 ×10⁻⁶ cm/s and the Papp A→B at 240 min, 100 µM ([3]; with probenecid 100 µM, permeability coefficient, with 100 µM probenecid, mean ± SEM) was 21.2 ×10⁻⁶ cm/s. The Papp A→B at 240 min ([3]; with verapamil 100 µM, PC (permeability of cell), Celexocib study, Verapamil, mean ± SD) was 3.5 ×10⁻⁶ cm/s, the “PE (permeability of cell + blank)” value [4, 7] was 0.36 ± 0.15 µm/min and the “Permeability coefficient without inflammation and inhibitor” value ([4]; mean ± SD) was 0.44 ± 0.19 µm/min. The “increase of permeability coefficient with probenecid compared to no inhibitor” value ([4]; human, 240 min, 100 µM) was 13.63 fold, the “increase of permeability coefficient with verapamil compared to no inhibitor” value ([4]; human, 240 min, 100 µM) was 4.72 fold and the “cumulated concentration of NSAID in the basolateral compartment” value ([4]; human, 100 µM) was 0.0071 ± 0.00032 nmol/mm^2. The permeability coefficient ([4]; with 100 µM verapamil) was 2.10 ± 0.92 µm/min and the permeability coefficient [4, 8] was 0.44 ± 0.10 µm/min.

For `CN1C(=O)CN=C(c2ccccc2)c2cc(Cl)ccc21` [diazepam], the “PS all (cell + blank)” value [4, 9] was 0.14 ± 0.004 µL/min, the PS cell [4, 9] was 0.46 ± 0.04 µL/min and the “PS all (cell + blank)” value [4, 10] was 0.09 ± 0.05 µL/min. For the same compound, the PS cell [4, 10] was 0.41 ± 0.35 µL/min, the “PS all (cell + blank)” value [4, 7] was 0.11 ± 0.02 µL/min and the PS cell [4, 7] was 0.38 ± 0.19 µL/min. For the same compound, the “PS all (cell + blank)” value [4, 11] was 0.12 ± 0.01 µL/min, the PS cell [4, 11] was 0.57 ± 0.21 µL/min and the “PS all (cell + blank)” value [4, 12] was 0.1 ± 0.03 µL/min. The PS cell [4, 12] was 0.68 ± 0.69 µL/min, the “PS all (cell + blank)” value [4, 13] was 0.11 ± 0.03 µL/min and the PS cell [4, 13] was 0.44 ± 0.35 µL/min. The “PS all (cell + blank)” value [4, 14] was 0.09 ± 0.02 µL/min, the PS cell [4, 14] was 0.29 ± 0.16 µL/min and the “PS all (cell + blank)” value [4, 15] was 0.08 ± 0.02 µL/min. For the same compound, the PS cell [4, 15] was 0.39 ± 0.35 µL/min, the “PS all (cell + blank)” value [4, 16] was 0.12 ± 0.02 µL/min and the PS cell [4, 16] was 0.31 ± 0.08 µL/min. For the same compound, the “PS all (cell + blank)” value [4, 17] was 0.1 ± 0.01 µL/min, the PS cell [4, 17] was 0.32 ± 0.14 µL/min and the “PS all (cell + blank)” value [4, 18] was 0.05 ± 0.03 µL/min. The PS cell [4, 18] was 0.24 ± 0.36 µL/min, the “PS all (cell + blank)” value [4, 19] was 0.12 ± 0.04 µL/min and the PS cell [4, 19] was 0.45 ± 0.24 µL/min. It also gave a PS blank ([5]; Diclofenac study, Probenecid) of 0.15 ± 0.03 µL/min, a PS blank ([5]; Diclofenac study, Verapamil) of 0.13 ± 0.03 µL/min and a PS blank ([5]; Diclofenac study, w/o Inhibitor) of 0.17 ± 0.01 µL/min. For the same compound, the PS blank ([5]; Ibuprofen study, Probenecid) was 0.14 ± 0.01 µL/min, the PS blank ([5]; Ibuprofen study, Verapamil) was 0.12 ± 0.06 µL/min and the PS blank ([5]; Ibuprofen study, w/o Inhibitor) was 0.21 ± 0.03 µL/min. For the same compound, the PS blank ([5]; Piroxicam study, Probenecid) was 0.12 ± 0.03 µL/min, the PS blank ([5]; Piroxicam study, Verapamil) was 0.09 ± 0.02 µL/min and the PS blank ([5]; Piroxicam study, w/o Inhibitor) was 0.19 ± 0.02 µL/min. For the same compound, the PS blank ([5]; study, Probenecid) was 0.20 ± 0.004 µL/min, the PS blank ([5]; study, Verapamil) was 0.13 ± 0.05 µL/min and the PS blank ([5]; study, w/o Inhibitor) was 0.18 ± 0.003 µL/min.

In the case of `O=C(O)Cc1ccccc1Nc1c(Cl)cccc1Cl` [diclofenac], the XlogD [2] is given as 1.1, the Papp A→B at 240 min ([3]; PC (permeability of cell)) is given as 11.1 ×10⁻⁶ cm/s and the Papp A→B at 240 min ([3]; PE (permeability of cell + blank)) is given as 3.43 ×10⁻⁶ cm/s. For the same compound, the “PE (permeability of cell + blank)” value [4, 13] was 2.11 ± 0.22 µm/min, the “Permeability coefficient without inflammation and inhibitor” value ([4]; mean ± SD) was 3.64 ± 0.84 µm/min and the “PE (permeability of cell + blank)” value ([4]; human, 240 min) was 2.98 ± 1.37 µm/min. For the same compound, the “increase of permeability coefficient with probenecid compared to no inhibitor” value ([4]; human, 240 min, 100 µM) was 1.83 fold, the “cumulated concentration of NSAID in the basolateral compartment” value ([4]; human, 100 µM) was 0.043 ± 0.0046 nmol/mm^2 and the permeability coefficient ([4]; with 100 µM probenecid) was 6.66 ± 1.87 µm/min. The permeability coefficient ([4]; with 100 µM verapamil) was 3.54 ± 0.38 µm/min and the permeability coefficient [4, 8] was 3.64 ± 0.34 µm/min.

For `O=C(O)c1ccccc1Nc1cccc(C(F)(F)F)c1` [flufenamic acid], the COX-2 expression [6] is listed as “NF-κB-independent upregulation of COX-2”.

— publication PMC11054638, “Transport of Non-Steroidal Anti-Inflammatory Drugs across an Oral Mucosa Epithelium In Vitro Model” (Pharmaceutics, 2024)
